In ChEMBL document CHEMBL1201862, “PubChem BioAssay data set” (2004):
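Dose response: 5 concentrations. Exposure: 48 h. Format: 96-well plates. Endpoint: linear interpolation; highest concentration if not reached. GI50 = concentration required for 50% inhibition of growth.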 Calls of active or inactive are those of the source. Rule as the data show it: active = GI50 up to about 1.1 µM and inactive = higher. Starred links: 1 amine or outer side, 2 acyl side, 3 side chain; linkers in the order of their positions; H or OH if unused. Non-standard residues stand in square brackets, D forms with d. Residues, ends and D or L forms follow the SMILES beside them. ξ: configuration not given here. X24 = O=C(C(CC(O)CO)O[*:1])[*:2]; Ile(3ξ) = CCC(C)[C@H](N)C(=O)O; NMeV = CN[C@H](C(=O)O)C(C)C; NMeA = CN[C@@H](C)C(=O)O; βAla = NCCC(=O)O

Assays:
Assay in all cases: NCI tumour cell line growth inhibition, 48 h
[1] = test system: M19-MEL
[2] = test system: HOP-18
[3] = test system: XF498
[4] = test system: RXF 631
[5] = test system: LXFL 529
[6] = test system: DLD-1
[7] = test system: KM-20L2
[8] = test system: DMS-273
[9] = test system: SNB-78

In the case of `CN(C)CCc1ccc(Cl)cc1Cl`, the GI50 [1] was > 100 µM (inactive), the GI50 [2] was > 100 µM (inactive) and the GI50 [3] was > 100 µM (inactive). The GI50 [4] was > 100 µM (inactive), the GI50 [5] was > 100 µM (inactive) and the GI50 [6] was > 100 µM (inactive). The GI50 [7] was > 100 µM (inactive).
`O=C(O)c1c2c(cc3c(=O)cc(-c4ccccc4)oc13)CCCC2` was tested, and the GI50 [8] was > 100 µM (inactive), the GI50 [3] was > 100 µM (inactive) and the GI50 [4] was > 100 µM (inactive). For the same molecule, the GI50 [5] was > 100 µM (inactive), the GI50 [9] was > 100 µM (inactive) and the GI50 [6] was > 100 µM (inactive). For the same molecule, the GI50 [7] was > 100 µM (inactive).
For `Cc1cc(Cl)ccc1NC(=O)C1C(=O)C(=O)N(c2ccc(Cl)cc2C)C1=O` (stereo unspecified), the GI50 [1] was > 100 µM (inactive), the GI50 [8] was > 100 µM (inactive) and the GI50 [4] was 68.2 µM (inactive). For the same molecule, the GI50 [5] was 48.3 µM (inactive), the GI50 [9] was 76 µM (inactive) and the GI50 [6] was > 100 µM (inactive). For the same molecule, the GI50 [7] was 48.3 µM (inactive).
In the case of `COc1cc(C)c(C(=O)/C=C/c2cc(OC)c(O)c(OC)c2)cc1O`, the GI50 [1] was 19.3 µM (inactive), the GI50 [8] was 15.5 µM (inactive) and the GI50 [3] was 15.7 µM (inactive). For the same molecule, the GI50 [4] was 20.8 µM (inactive), the GI50 [5] was 20.4 µM (inactive) and the GI50 [9] was 45.5 µM (inactive). For the same molecule, the GI50 [6] was 15.3 µM (inactive) and the GI50 [7] was 26.5 µM (inactive).
For `CCOC1=CP(=O)(OCC)CC(C)=C1Cl` (stereo unspecified), the GI50 [1] was > 100 µM (inactive), the GI50 [8] was 15.7 µM (inactive) and the GI50 [5] was > 100 µM (inactive). For the same molecule, the GI50 [9] was > 100 µM (inactive), the GI50 [6] was > 100 µM (inactive) and the GI50 [7] was > 100 µM (inactive).
`COc1ccc2c(c1)[n+]([O-])c(C(=O)C/C(=N\NC(=O)C[N+](C)(C)C)C(=O)Nc1cc(Cl)ccc1Cl)c(C)[n+]2[O-]` was tested, and the GI50 [1] was > 100 µM (inactive), the GI50 [8] was > 100 µM (inactive) and the GI50 [2] was > 100 µM (inactive). The GI50 [5] was > 100 µM (inactive), the GI50 [9] was > 100 µM (inactive) and the GI50 [6] was > 100 µM (inactive).
With `NC(CO)c1ccc(OCc2ccccc2)cc1` (stereo unspecified) the GI50 [1] was > 100 µM (inactive), the GI50 [8] was > 100 µM (inactive) and the GI50 [2] was > 100 µM (inactive). For the same molecule, the GI50 [3] was 76.9 µM (inactive), the GI50 [5] was > 100 µM (inactive) and the GI50 [9] was > 100 µM (inactive). For the same molecule, the GI50 [6] was > 100 µM (inactive) and the GI50 [7] was > 100 µM (inactive).
For `C=CCOC1CC(n2cnc3c(N)ncnc32)OC1CO` (stereo unspecified), the GI50 [1] was > 100 µM (inactive), the GI50 [8] was > 100 µM (inactive) and the GI50 [3] was > 100 µM (inactive). The GI50 [5] was > 100 µM (inactive), the GI50 [6] was > 100 µM (inactive) and the GI50 [7] was > 100 µM (inactive).
With `O=C(O)COc1ccc(O)c2c1C(=O)CCCC2=O` the GI50 [1] was > 100 µM (inactive), the GI50 [8] was > 100 µM (inactive) and the GI50 [3] was > 100 µM (inactive). For the same molecule, the GI50 [4] was > 100 µM (inactive), the GI50 [5] was > 100 µM (inactive) and the GI50 [9] was > 100 µM (inactive). The GI50 [6] was > 100 µM (inactive) and the GI50 [7] was > 100 µM (inactive).
With `O=C1NC2C=CN(Cc3ccccc3)C=C2C(=O)N2CCCC12` (stereo unspecified) the GI50 [1] was > 100 µM (inactive), the GI50 [8] was > 100 µM (inactive) and the GI50 [2] was > 100 µM (inactive). The GI50 [3] was > 100 µM (inactive), the GI50 [4] was > 100 µM (inactive) and the GI50 [5] was > 100 µM (inactive). The GI50 [9] was > 100 µM (inactive), the GI50 [6] was > 100 µM (inactive) and the GI50 [7] was > 100 µM (inactive).
With `CCCCCCCC(=O)OCC(COC(=O)C(C)(C)C)OC(=O)Cc1ccccc1` (stereo unspecified) the GI50 [1] was > 100 µM (inactive), the GI50 [8] was > 100 µM (inactive) and the GI50 [2] was > 100 µM (inactive). The GI50 [5] was > 100 µM (inactive), the GI50 [6] was > 100 µM (inactive) and the GI50 [7] was > 100 µM (inactive).
With `COc1ccc(-c2cc(C(=O)Nc3cccc(C(F)(F)F)c3)nc(S)n2)cc1` the GI50 [1] was > 100 µM (inactive), the GI50 [8] was > 100 µM (inactive) and the GI50 [2] was > 100 µM (inactive). The GI50 [3] was > 100 µM (inactive), the GI50 [5] was > 100 µM (inactive) and the GI50 [9] was > 100 µM (inactive). For the same molecule, the GI50 [6] was > 100 µM (inactive) and the GI50 [7] was > 100 µM (inactive).
For `N#C/C(=N\c1ccccc1N(C(=O)c1ccccc1)C(=O)c1ccccc1)c1ccccc1`, the GI50 [1] was > 100 µM (inactive), the GI50 [8] was 3.83 µM (inactive) and the GI50 [2] was > 40.4 µM (inactive). The GI50 [3] was 7.8 µM (inactive), the GI50 [5] was 41 µM (inactive) and the GI50 [9] was > 91 µM (inactive). The GI50 [6] was > 42 µM (inactive) and the GI50 [7] was 9.71 µM (inactive).
With `Cc1cc(Cl)cc2c1NC(=O)C2(O)C(C)C(=O)c1ccc(Cl)cc1` (stereo unspecified) the GI50 [1] was 12.8 µM (inactive), the GI50 [8] was > 83.2 µM (inactive) and the GI50 [2] was > 92.9 µM (inactive). The GI50 [3] was 42.6 µM (inactive), the GI50 [5] was > 66.5 µM (inactive) and the GI50 [9] was > 66.2 µM (inactive). The GI50 [6] was > 61.2 µM (inactive) and the GI50 [7] was > 100 µM (inactive).
With `CCOc1ccc2c(c1)[n+]([O-])c(-c1ccccc1Cl)c(N)[n+]2[O-]` the GI50 [1] was > 100 µM (inactive), the GI50 [8] was > 100 µM (inactive) and the GI50 [2] was > 100 µM (inactive). The GI50 [3] was > 100 µM (inactive), the GI50 [4] was > 100 µM (inactive) and the GI50 [5] was > 100 µM (inactive). The GI50 [9] was > 100 µM (inactive), the GI50 [6] was > 100 µM (inactive) and the GI50 [7] was > 100 µM (inactive).
`CCCC/C=C1\CCC(CN2CCOCC2)C1=O` (stereo unspecified) was tested, and the GI50 [1] was 4.02 µM (inactive), the GI50 [8] was 3.74 µM (inactive) and the GI50 [2] was 0.653 µM (active). For the same molecule, the GI50 [3] was 1.64 µM (inactive), the GI50 [4] was 14.9 µM (inactive) and the GI50 [5] was 1.43 µM (inactive). For the same molecule, the GI50 [9] was 8.39 µM (inactive), the GI50 [6] was 1.75 µM (inactive) and the GI50 [7] was 4.89 µM (inactive).
For `C=C1c2ccccc2N(S(=O)(=O)c2ccc(C)cc2)C12CCCCC2`, the GI50 [1] was 47.1 µM (inactive), the GI50 [8] was 45 µM (inactive) and the GI50 [2] was > 100 µM (inactive). The GI50 [3] was > 100 µM (inactive), the GI50 [5] was 37.2 µM (inactive) and the GI50 [6] was > 100 µM (inactive). The GI50 [7] was > 100 µM (inactive).
In the case of `COc1cc(C2C(C(=O)O)=C(COC(C)=O)Oc3cc4c(cc32)OCO4)cc(OC)c1OC(C)=O` (stereo unspecified), the GI50 [1] was > 100 µM (inactive), the GI50 [8] was > 100 µM (inactive) and the GI50 [2] was > 100 µM (inactive). The GI50 [3] was > 100 µM (inactive), the GI50 [4] was > 100 µM (inactive) and the GI50 [9] was > 100 µM (inactive). The GI50 [6] was > 100 µM (inactive) and the GI50 [7] was > 100 µM (inactive).
With `COc1c2c(c3c(c1C1OC(C)[C@@H](C)O1)CC(C)(C)O3)C(=O)c1ccccc1C2=O` (stereo partly specified) the GI50 [1] was 36.7 µM (inactive), the GI50 [8] was 24.2 µM (inactive) and the GI50 [3] was 41 µM (inactive). The GI50 [4] was 9.91 µM (inactive), the GI50 [5] was 23.1 µM (inactive) and the GI50 [9] was > 100 µM (inactive). The GI50 [6] was 36.1 µM (inactive) and the GI50 [7] was 29.2 µM (inactive).
With `CCC(C)[C@@H]1NC(=O)[C@@H]2CCCN2C(=O)C(CC(O)CO)OC(=O)CCNC(=O)[C@H](C)N(C)C(=O)[C@H](C(C)C)N(C)C1=O` (stereo partly specified) (cyclo([Ile(3ξ)][NMeV][NMeA][βAla][X24]P)) the GI50 [1] was > 100 µM (inactive), the GI50 [8] was > 100 µM (inactive) and the GI50 [3] was > 100 µM (inactive). For the same molecule, the GI50 [4] was > 100 µM (inactive), the GI50 [5] was 44.6 µM (inactive) and the GI50 [9] was > 100 µM (inactive). For the same molecule, the GI50 [6] was > 100 µM (inactive) and the GI50 [7] was > 100 µM (inactive).
